In the oligonucleotide strings, read from the 5' end, every base follows the letter of its sugar. An asterisk marks phosphorothioate; unmarked linkages are phosphodiester. Other units and linkages are bracketed, terminal groups are in braces. A string of capitals states the bases alone. {D01} = GalNAc ligand D01, attached to sense strand by a phosphodiester bond; m = 2'-O-methyl; f = 2'-fluoro
Experiments:
[1] = target: T1, hTLR8 (Homo sapiens, UniProt Q9NR97); experiment: Agonistic activity on hTLR8 cells (HEK BLUE, QUANTI-Blue OD650); type: cell-based; conditions: 24 h, transfection with RNAiMAX, maximum concentration 200 nM
T1 construct: host or cells: HEK BLUE hTLR8 (HEK293-derived SEAP reporter line)
T1 sequence (Q9NR97 27-1041): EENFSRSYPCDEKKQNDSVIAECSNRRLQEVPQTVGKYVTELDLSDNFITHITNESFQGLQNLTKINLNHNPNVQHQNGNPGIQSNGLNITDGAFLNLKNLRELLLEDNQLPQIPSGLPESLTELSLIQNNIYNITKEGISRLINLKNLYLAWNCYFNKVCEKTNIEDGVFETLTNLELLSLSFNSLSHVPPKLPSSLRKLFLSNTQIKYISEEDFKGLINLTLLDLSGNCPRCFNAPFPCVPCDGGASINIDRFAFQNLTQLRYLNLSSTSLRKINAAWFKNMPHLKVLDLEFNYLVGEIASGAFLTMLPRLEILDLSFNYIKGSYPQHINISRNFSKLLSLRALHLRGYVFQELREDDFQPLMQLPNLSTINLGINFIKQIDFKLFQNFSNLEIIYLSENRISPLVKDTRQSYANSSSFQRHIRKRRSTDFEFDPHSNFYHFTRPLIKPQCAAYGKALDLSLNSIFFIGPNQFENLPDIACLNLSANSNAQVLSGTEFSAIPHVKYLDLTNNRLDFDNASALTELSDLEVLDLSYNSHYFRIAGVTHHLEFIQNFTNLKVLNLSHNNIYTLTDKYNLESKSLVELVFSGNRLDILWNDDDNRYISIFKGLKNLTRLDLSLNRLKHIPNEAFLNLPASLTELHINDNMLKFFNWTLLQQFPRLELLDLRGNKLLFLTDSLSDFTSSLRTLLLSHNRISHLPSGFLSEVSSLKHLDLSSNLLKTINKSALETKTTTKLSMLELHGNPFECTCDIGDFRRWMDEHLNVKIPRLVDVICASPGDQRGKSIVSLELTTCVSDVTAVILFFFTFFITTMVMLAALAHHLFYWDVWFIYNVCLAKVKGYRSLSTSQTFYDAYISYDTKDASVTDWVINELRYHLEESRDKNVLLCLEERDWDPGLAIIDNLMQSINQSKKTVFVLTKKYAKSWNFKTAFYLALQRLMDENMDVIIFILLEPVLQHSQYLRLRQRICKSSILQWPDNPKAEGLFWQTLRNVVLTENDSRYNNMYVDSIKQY
Experimental: (§1) 1) The conjugate of the present invention was diluted to a concentration that was 20 times a final concentration, the diluted conjugate was mixed with RNAiMAX-OPTI MEM (RNAiMAX:OPTI MEM=3:47) at a ratio of 1:1 and incubated for 15 min at room temperature.
(§2) 2) 10 μL of incubated conjugate of the present invention was added into a corresponding cell plate, with 10 concentrations in total, a maximum concentration being 200 nM, and double duplicated wells for each concentration.
(§3) 10 μL of 0.5 μM BLOCK-iT™ Alexa Fluor® Red Fluorescent Control was added into 2 transfection positive control wells.
4) 90 μL of cells were seeded into a 96-well plate with the conjugate at the density of 50,000 cells/well. […]
(§4) 7) Compound activity detection: 20 μL of cell supernatant was taken from each well and added into an experimental plate containing 180 μL of QUANTI-Blue™ reagent and then incubated for 1 h at 37° C., followed by detecting an absorbance values at 650 nm (OD650) using the multifunctional microplate reader Flexstation III.
Compound activity: the OD650 values were analyzed using GraphPad Prism software, and a dose effect curve of the compound was fit, and the EC50 value of the compound was calculated. […] The cell activity % value was analyzed using GraphPadPrism software, the dose effect curve of the compound was fit, and the CC50 value of the compound on cell was calculated.

[2] = target: T2, hTLR3 (Homo sapiens, UniProt O15455); experiment: Agonistic activity on hTLR3 cells (HEK BLUE, QUANTI-Blue OD650); type: cell-based; conditions: 24 h, transfection with RNAiMAX, maximum concentration 200 nM, read-out: EC50
T2 construct: host or cells: HEK BLUE hTLR3 (HEK293-derived SEAP reporter line)
T2 sequence (O15455 24-904): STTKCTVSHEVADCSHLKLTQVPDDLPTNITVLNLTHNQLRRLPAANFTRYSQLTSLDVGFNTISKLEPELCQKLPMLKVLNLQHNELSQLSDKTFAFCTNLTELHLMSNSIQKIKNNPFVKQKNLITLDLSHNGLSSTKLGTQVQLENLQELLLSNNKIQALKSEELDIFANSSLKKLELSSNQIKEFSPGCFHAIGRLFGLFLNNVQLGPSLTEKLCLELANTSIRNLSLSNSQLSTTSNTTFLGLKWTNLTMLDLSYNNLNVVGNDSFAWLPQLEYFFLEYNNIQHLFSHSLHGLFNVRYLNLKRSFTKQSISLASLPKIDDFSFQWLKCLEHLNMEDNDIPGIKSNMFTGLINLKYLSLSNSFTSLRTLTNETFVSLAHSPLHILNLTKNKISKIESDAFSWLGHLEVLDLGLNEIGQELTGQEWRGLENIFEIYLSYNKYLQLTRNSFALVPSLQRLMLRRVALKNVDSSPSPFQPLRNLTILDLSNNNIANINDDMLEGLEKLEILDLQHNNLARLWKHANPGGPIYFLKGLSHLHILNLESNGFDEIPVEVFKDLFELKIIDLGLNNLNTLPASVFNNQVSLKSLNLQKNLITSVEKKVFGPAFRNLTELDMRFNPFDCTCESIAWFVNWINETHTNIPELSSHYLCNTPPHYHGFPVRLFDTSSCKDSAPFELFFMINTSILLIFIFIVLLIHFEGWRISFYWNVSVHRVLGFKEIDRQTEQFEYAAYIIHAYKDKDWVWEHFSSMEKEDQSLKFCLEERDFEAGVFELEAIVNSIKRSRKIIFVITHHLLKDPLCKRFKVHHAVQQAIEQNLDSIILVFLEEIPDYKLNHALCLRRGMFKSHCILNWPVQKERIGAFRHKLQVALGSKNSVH
Experimental: as §1, §2, §3
(§5) 4) 90 μL of cells were seeded into a 96-well plate with the conjugate at the density of 50,000 cells/well.
(§6) 5) The conjugate of the present invention and the cells were co-incubated for 24 h in an incubator under the conditions of 37° C. and 5% CO2.
as §4
(§7) Compound activity: the OD650 values were analyzed using GraphPad Prism software, and a dose effect curve of the compound was fit, and the EC50 value of the compound was calculated. Cell activity detection: the calculation formula of cell activity % was as follows. The cell activity % value was analyzed using GraphPadPrism software, the dose effect curve of the compound was fit, and the CC50 value of the compound on cell was calculated.

[3] = test system: HEK BLUE hTLR3; experiment: Cell activity detection (CellTiter-Glo) in hTLR3 cells; type: cell-based, human; conditions: 24 h, maximum concentration 200 nM, read-out: CC50
Experimental: as §1, §2, §5, §6
(§8) 8) Cell activity detection: the operation was carried out according to the method in the Celltiter-Glo specification, and a chemiluminescence signals (RLU) were detected using the multifunctional microplate reader Flexstation III.
as §7

[4] = test system: HEK BLUE hTLR8; experiment: Cell activity detection (CellTiter-Glo) in hTLR8 cells; type: cell-based, human; conditions: 24 h, maximum concentration 200 nM, read-out: CC50
Experimental: as §1, §2, §5, §6, §8, §7

Conjugate 3: Double-stranded RNAi analog against AGT, D01 GalNAc ligand on sense strand; sense SEQ ID NO: 7, antisense SEQ ID NO: 2 containing Z (sense mA*mU*fCfCmAfCfAfAmUmGmAfGmAmGmUmAmCmA-{D01}; antisense CUCACAUGUACNCUCAUUGUGGAUGACGA; antisense: chemistry not given here; antisense strand modified, includes nucleotide analog Z, further chemistry not fully specified)
> 200 nM: EC50 [1] | EC50 [2] | CC50 [3] | CC50 [4]

Conjugate 2: Double-stranded RNAi analog against AGT, D01 GalNAc ligand on sense strand; sense SEQ ID NO: 6, antisense SEQ ID NO: 2 containing Z (sense mA*mU*fCfCmAfCfAfAmUmGmAmGmAfGmUmAmCmA-{D01}; antisense CUCACAUGUACNCUCAUUGUGGAUGACGA; antisense: chemistry not given here; antisense strand modified, includes nucleotide analog Z, further chemistry not fully specified)
> 200 nM: EC50 [1] | EC50 [2] | CC50 [3] | CC50 [4]

— patent publication US20260071220A1, “CONJUGATE OF NUCLEOTIDE ANALOG-CONTAINING DOUBLE-STRANDED RNAI ANALOG” (BaseCure Therapeutics LLC, priority 2022, published 2026)
